Laboratory results as given in ChEMBL document CHEMBL1201862, “PubChem BioAssay data set” (2004).
Active and inactive are the calls of the source.

What was measured:
[1] = molecular target: FAD-linked sulfhydryl oxidase ALR (Homo sapiens, UniProt P55789); assay: ALR-catalysed DTT oxidation blockers – biochemical, H2O2 detection, luminescence, cherry-pick, dose response (AID 493248)
[2] = molecular target: DNA dC->dU-editing enzyme APOBEC-3A (Homo sapiens, UniProt P31941); assay: A3A deaminase inhibition for selectivity – biochemical, dose response (AID 504722); format: functional
DNA dC->dU-editing enzyme APOBEC-3A, sequence (P31941 whole entry): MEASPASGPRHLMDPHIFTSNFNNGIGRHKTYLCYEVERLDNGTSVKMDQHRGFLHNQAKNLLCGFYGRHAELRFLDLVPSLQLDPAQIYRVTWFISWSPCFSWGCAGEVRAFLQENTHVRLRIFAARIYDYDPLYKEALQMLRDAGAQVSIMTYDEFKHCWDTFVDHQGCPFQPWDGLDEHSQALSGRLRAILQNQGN

[3] = Counterscreen for IDE inhibitors: Luminescence-based cell-based high throughput dose response assay to identify compounds that are cytotoxic to HEK cells. [Related pubchem assays: 434962 (Primary screen (IDE inhibitors in singlicate)), 449730 (Counterscreen (Cytotoxicity in triplicate)), 435028 (Confirmation (IDE inhibitors in triplicate)) …; format: functional; conditions: HEK293
[4] = molecular target: Genome polyprotein (dengue virus type 2, UniProt P29990); assay: flavivirus cap methylation enzyme inhibition – biochemical, confirmation dose response, primary screen (AID 588689); format: functional
[5] = molecular target: Endoplasmic reticulum aminopeptidase 1 (Homo sapiens, UniProt Q9NZ08); assay: inhibition of human ERAP1 enzyme activity – biochemical, cherry-pick, set 2, plate reader, dose response (AID 743314)
Endoplasmic reticulum aminopeptidase 1, sequence (Q9NZ08 whole entry): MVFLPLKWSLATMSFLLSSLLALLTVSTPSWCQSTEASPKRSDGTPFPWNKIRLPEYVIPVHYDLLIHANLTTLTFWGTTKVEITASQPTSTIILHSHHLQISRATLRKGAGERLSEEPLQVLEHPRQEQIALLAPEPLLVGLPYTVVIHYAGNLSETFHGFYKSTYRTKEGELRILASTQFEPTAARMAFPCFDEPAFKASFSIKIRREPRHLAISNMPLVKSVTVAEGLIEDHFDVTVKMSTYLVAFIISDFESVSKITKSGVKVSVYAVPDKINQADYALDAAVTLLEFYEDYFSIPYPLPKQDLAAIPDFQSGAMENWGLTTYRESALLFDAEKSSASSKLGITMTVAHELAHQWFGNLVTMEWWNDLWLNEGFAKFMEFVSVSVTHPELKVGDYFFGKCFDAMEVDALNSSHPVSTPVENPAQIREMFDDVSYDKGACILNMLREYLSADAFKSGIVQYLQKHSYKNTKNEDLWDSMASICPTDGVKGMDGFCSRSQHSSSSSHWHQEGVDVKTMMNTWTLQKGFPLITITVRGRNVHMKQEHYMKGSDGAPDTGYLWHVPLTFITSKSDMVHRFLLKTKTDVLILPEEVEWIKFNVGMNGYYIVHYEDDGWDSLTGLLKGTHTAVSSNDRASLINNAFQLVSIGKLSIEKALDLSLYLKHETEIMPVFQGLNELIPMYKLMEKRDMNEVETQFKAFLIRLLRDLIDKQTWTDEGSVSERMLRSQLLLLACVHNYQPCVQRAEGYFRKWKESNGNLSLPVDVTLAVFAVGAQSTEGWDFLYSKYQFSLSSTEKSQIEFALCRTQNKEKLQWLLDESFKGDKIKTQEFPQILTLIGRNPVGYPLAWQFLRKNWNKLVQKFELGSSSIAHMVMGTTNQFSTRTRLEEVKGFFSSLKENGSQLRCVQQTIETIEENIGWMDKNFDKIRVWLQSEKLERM

[6] = molecular target: T1, Insulin-degrading enzyme (Homo sapiens, UniProt P14735); assay: Dose Response: Fluorescence polarization-based cell-based high throughput dose response assay for inhibitors of insulin-degrading enzyme (IDE). [Related pubchem assays: 434962 (Primary screen (IDE inhibitors in singlicate)), 449730 (Counterscreen (Cytotoxicity in triplicate)), 435028 (Confirmation (IDE inhibitors in triplicate)), 434984 (Summary …; format: functional
T1 sequence (P14735 whole entry): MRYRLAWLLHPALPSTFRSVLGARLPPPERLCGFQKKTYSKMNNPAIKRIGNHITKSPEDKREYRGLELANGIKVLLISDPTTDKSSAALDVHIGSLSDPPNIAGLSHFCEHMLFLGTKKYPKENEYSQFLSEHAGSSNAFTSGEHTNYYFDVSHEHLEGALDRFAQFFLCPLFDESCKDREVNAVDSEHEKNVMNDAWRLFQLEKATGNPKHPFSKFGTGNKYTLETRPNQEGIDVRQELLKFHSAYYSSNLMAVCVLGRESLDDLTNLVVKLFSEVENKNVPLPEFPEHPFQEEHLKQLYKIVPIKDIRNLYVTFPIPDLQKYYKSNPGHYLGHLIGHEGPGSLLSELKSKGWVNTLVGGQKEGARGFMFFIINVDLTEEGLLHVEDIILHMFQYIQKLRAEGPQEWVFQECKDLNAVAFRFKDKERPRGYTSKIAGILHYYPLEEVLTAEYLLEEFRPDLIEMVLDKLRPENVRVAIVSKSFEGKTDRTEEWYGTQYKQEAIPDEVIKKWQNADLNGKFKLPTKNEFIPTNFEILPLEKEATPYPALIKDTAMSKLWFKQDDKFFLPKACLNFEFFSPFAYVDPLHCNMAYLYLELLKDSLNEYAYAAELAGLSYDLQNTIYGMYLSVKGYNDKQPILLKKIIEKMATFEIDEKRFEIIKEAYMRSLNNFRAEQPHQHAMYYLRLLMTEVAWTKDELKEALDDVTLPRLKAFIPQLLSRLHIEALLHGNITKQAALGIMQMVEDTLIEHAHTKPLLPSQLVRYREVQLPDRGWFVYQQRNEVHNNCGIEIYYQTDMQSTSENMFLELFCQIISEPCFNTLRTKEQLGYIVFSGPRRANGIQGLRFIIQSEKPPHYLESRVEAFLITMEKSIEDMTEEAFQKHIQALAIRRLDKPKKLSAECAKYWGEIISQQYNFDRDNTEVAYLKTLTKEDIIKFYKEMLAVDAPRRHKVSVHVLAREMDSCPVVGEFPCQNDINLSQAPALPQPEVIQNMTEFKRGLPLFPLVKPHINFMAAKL

[7] = molecular target: T2, Alkaline phosphatase, tissue-nonspecific isozyme (Homo sapiens, UniProt P05186); assay: potency against alkaline phosphatase TNAP – biochemical, luminescent, dose response, SAR follow-up (AID 1056)
T2 sequence (P05186 whole entry): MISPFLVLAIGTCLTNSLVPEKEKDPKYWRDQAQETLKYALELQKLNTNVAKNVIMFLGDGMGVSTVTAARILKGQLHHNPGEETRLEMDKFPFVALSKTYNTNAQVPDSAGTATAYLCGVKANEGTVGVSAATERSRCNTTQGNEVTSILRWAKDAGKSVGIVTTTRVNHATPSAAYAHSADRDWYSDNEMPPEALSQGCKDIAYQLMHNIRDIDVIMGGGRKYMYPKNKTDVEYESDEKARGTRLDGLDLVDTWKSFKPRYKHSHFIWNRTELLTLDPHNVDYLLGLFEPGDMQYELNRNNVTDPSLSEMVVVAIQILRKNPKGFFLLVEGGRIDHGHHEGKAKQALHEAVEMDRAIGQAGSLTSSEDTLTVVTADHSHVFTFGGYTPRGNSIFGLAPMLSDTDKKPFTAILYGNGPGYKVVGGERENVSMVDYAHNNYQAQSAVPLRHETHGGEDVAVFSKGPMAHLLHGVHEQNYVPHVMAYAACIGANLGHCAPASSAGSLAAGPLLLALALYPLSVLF

[8] = molecular target: T3, Orexin receptor type 2 (Homo sapiens, UniProt O43614); assay: Counterscreen assay for antagonists of the orexin 1 receptor (OX1R; HCRTR1): Homogeneous Time Resolved Fluorescence (HTRF)-based cell-based dose response assay for antagonists of the orexin 2 receptor (OX2R; HCRTR2), run by assay provider.; format: functional
T3 sequence (O43614 whole entry): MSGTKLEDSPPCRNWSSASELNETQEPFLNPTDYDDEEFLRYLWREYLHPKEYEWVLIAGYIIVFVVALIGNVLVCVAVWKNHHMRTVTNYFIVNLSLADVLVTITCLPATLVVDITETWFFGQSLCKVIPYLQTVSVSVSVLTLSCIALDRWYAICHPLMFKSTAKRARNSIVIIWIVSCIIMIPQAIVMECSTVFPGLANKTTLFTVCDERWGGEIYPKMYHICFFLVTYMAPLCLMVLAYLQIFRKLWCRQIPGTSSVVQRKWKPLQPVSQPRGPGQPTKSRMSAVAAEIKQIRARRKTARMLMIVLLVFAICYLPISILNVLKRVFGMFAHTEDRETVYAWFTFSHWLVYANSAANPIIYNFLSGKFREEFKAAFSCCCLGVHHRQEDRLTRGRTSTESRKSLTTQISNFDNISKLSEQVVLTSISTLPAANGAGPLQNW

[9] = molecular target: Glucose-6-phosphate 1-dehydrogenase (Homo sapiens, UniProt P11413); assay: inhibition of Homo sapiens G6PD, dose series – biochemical, fluorescence, selectivity assay for P. falciparum G6PD inhibitor project, dose response (AID 504792); format: functional
Glucose-6-phosphate 1-dehydrogenase, sequence (P11413 whole entry): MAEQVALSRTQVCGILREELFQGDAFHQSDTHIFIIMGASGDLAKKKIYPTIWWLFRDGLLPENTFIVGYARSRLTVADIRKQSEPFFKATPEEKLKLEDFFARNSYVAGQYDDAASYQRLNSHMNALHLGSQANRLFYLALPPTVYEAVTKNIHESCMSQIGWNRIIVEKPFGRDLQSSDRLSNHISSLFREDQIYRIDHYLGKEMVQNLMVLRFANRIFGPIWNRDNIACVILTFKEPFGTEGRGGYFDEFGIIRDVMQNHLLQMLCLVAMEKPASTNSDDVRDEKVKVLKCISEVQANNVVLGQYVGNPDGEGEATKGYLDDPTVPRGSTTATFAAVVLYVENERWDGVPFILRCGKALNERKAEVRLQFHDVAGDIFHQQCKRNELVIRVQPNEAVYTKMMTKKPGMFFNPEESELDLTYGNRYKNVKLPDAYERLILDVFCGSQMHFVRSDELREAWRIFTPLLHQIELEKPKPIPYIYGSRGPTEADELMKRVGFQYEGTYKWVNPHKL

[10] = molecular target: Phosphoethanolamine/phosphocholine phosphatase (Homo sapiens, UniProt Q8TCT1); assay: SAR assay for compounds that inhibit PHOSPHO1. [Related pubchem assays (depositor defined):AID1545, AID1565, AID1574]
Phosphoethanolamine/phosphocholine phosphatase, sequence (Q8TCT1 whole entry): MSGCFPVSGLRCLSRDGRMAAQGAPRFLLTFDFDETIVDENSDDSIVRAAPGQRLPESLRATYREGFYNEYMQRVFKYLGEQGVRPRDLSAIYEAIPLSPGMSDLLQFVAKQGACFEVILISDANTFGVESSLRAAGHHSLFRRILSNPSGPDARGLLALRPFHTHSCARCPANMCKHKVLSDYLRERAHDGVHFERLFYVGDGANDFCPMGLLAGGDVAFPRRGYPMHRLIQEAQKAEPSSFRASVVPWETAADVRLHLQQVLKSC

[11] = molecular target: T3, Orexin receptor type 2; assay: Counterscreen assay for antagonists of the orexin 1 receptor (OX1R; HCRTR1): Fluorescence-based cell-based dose response assay for antagonists of the orexin 2 receptor (OX2R; HCRTR2), run by assay provider.; format: functional
[12] = molecular target: DNA dC->dU-editing enzyme APOBEC-3G (Homo sapiens, UniProt Q9HC16); assay: Dose Response confirmation of small molecule APOBEC3G DNA Deaminase Inhibitors via a fluorescence-based single-stranded DNA deaminase assay. [Related pubchem assays (depositor defined):AID493012, AID493028]; format: functional
DNA dC->dU-editing enzyme APOBEC-3G, sequence (Q9HC16 whole entry): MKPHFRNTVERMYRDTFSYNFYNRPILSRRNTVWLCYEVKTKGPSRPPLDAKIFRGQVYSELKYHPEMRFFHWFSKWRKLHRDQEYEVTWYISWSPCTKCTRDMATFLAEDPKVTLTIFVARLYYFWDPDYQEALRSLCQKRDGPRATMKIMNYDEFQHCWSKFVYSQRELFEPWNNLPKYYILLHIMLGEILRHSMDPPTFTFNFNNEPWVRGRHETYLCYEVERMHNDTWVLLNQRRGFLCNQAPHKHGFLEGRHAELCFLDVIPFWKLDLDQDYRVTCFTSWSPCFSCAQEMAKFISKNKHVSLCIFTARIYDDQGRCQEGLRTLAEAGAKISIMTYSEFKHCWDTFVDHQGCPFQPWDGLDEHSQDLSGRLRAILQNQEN

[13] = molecular target: T4, Mannose-6-phosphate isomerase (Homo sapiens, UniProt P34949); assay: phosphomannose isomerase inhibition – biochemical, fluorescence intensity, confirmation (AID 1535)
T4 sequence (P34949 whole entry): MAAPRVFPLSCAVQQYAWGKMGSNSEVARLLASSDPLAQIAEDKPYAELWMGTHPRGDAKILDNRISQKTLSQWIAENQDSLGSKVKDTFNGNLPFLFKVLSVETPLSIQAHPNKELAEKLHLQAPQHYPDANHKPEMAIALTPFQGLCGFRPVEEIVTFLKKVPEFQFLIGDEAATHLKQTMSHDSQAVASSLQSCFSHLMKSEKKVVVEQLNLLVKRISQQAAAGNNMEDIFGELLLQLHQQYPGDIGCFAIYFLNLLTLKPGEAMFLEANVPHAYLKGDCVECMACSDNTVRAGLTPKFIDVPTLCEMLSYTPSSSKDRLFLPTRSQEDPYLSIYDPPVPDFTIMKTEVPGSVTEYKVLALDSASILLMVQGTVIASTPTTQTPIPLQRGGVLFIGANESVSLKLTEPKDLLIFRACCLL

[14] = molecular target: T5, Phosphomannomutase 2 (Homo sapiens, UniProt O15305); assay: Counter screen SAR assay for PMM2 inhibitors via a fluorescence intensity assay. [Related pubchem assays (depositor defined):AID1545, AID1574]
T5 sequence (O15305 whole entry): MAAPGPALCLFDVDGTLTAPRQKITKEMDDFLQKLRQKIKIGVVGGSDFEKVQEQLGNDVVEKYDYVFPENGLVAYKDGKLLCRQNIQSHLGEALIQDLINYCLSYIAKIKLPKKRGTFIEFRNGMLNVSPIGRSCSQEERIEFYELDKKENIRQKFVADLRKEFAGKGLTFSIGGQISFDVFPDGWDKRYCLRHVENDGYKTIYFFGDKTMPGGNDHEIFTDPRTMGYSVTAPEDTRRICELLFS

[15] = molecular target: Large T antigen (Simian virus 40, UniProt P03070); format: functional, Betapolyomavirus macacae;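 further: Confirmatory-stage PubChem screen for compounds that inhibit SV40 T antigen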
Large T antigen, sequence (P03070 whole entry): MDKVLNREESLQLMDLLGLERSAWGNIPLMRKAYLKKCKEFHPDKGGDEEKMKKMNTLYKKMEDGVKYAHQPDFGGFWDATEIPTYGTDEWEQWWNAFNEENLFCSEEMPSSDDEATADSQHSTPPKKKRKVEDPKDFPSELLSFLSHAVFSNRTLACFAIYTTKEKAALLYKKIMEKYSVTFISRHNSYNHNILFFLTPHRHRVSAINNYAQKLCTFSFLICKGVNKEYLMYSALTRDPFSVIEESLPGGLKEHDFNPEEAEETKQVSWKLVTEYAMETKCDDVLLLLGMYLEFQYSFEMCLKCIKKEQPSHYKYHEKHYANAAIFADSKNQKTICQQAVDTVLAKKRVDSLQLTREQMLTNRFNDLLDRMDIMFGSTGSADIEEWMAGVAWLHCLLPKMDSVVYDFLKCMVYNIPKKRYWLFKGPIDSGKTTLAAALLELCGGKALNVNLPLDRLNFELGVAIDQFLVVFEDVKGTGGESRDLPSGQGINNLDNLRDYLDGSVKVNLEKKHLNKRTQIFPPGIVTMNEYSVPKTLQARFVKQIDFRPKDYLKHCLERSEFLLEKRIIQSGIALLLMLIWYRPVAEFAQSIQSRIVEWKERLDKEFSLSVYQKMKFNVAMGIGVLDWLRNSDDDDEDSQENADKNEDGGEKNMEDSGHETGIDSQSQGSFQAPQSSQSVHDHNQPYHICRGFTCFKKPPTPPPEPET

[16] = test system: Vero; assay: viability of Vero cells under compound – cytotoxicity control for flavivirus capping enzyme inhibitors (AID 588742); format: functional; conditions: Chlorocebus sabaeus
[17] = molecular target: T6, Corticotropin-releasing factor receptor 2/Corticotropin-releasing factor-binding protein (Homo sapiens, UniProt P24387+Q13324); assay: Dose Response confirmation of uHTS hits for small molecule antagonists of the CRF-binding protein and CRF-R2 receptor complex.; format: functional; conditions: read-out: IC50_Mean
T6 sequence (Q13324 whole entry): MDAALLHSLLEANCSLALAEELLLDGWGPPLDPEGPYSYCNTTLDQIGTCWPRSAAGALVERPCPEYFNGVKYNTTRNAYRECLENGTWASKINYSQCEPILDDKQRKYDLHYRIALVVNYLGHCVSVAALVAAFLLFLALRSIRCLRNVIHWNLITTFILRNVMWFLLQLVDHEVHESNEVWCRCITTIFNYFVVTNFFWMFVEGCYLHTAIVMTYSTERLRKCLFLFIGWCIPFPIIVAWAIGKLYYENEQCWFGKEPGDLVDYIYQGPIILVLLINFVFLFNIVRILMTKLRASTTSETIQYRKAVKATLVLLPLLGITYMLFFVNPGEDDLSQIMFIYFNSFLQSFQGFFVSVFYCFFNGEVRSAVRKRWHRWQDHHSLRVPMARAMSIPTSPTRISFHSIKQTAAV
T6 sequence (P24387 whole entry): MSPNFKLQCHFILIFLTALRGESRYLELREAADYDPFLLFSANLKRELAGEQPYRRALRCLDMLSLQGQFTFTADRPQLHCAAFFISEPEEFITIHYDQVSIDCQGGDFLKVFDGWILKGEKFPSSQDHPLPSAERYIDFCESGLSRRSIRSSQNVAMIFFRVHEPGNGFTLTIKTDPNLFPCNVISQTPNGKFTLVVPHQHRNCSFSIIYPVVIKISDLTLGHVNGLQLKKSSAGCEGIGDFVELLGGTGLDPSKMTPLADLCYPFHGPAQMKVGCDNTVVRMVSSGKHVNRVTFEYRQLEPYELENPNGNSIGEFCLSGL

[18] = molecular target: T6, Corticotropin-releasing factor receptor 2/Corticotropin-releasing factor-binding protein; assay: activators of CRF receptor 2 with binding protein – uHTS hits, confirmation (AID 602473); format: functional; conditions: read-out: EC50_Mean
[19] = molecular target: Apoptotic protease-activating factor 1 (Homo sapiens, UniProt O14727); format: functional
Apoptotic protease-activating factor 1, sequence (O14727 whole entry): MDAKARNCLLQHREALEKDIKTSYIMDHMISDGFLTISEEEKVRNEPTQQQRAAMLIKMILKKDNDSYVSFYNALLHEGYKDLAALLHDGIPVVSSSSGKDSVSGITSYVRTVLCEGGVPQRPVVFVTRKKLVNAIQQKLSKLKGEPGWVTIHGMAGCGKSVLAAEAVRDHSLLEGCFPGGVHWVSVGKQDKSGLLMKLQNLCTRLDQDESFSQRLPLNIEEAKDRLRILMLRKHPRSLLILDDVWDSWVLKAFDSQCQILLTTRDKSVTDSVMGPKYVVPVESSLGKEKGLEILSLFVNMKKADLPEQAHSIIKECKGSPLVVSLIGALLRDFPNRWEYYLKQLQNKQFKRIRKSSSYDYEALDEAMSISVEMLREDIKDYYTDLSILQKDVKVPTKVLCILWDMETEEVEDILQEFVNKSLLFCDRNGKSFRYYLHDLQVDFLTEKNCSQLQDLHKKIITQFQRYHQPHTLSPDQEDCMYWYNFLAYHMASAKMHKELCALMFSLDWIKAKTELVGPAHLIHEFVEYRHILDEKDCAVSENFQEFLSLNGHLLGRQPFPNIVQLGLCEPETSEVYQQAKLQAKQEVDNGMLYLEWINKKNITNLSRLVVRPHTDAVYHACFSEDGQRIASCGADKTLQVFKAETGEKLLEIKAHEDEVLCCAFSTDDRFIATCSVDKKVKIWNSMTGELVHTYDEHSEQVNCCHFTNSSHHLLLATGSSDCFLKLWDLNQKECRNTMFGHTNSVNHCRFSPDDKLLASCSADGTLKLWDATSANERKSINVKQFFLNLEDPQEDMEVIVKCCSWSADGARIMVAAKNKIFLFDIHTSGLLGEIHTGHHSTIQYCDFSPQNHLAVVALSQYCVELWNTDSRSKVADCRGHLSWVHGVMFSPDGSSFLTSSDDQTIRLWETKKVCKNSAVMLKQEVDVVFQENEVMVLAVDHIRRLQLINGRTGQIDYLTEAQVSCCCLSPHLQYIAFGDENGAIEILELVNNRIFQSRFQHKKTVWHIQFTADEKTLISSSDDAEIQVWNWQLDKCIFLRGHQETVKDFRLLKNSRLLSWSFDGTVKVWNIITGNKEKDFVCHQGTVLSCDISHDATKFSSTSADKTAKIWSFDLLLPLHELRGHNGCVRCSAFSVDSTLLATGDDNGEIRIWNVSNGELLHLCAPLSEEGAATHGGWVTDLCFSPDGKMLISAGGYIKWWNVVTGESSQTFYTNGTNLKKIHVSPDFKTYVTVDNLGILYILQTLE

FAD-linked sulfhydryl oxidase ALR, sequence (P55789 whole entry): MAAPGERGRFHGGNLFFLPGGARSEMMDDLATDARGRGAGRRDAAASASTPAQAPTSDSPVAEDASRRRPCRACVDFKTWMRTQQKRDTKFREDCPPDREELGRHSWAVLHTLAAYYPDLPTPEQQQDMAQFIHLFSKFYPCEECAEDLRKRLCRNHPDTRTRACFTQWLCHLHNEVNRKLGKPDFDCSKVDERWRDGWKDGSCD

Row | Compound | AC50 [1] | IC50 [2] | IC50 [3] | IC50 [4] | AC50 [5] | IC50 [6] | IC50 [7] | IC50 [8] | IC50 [9] | IC50 [10] | IC50 [11] | IC50 [12] | IC50 [13] | IC50 [14] | IC50 [15] | CC50 [16] | IC50 [17] | EC50 [18] | IC50 [19]
1 | O=C(O)c1ccccc1NS(=O)(=O)c1cccc(-n2sc3ccccc3c2=O)c1 | 243 nM (active) | > 100 µM (inactive) | 34.8 µM (not active) | 46.4 µM (active) | 730 nM (active) | 2.1 µM (active) | > 100 µM (inactive) | 3.45 µM (active) | 17.6 µM (active) | 808 nM (active) | 6.8 µM (active) | 9.14 µM (active) | 707 nM (active) | 5.15 µM (active) | 13.2 µM (active) | > 40 µM (active) |  |  | 
2 | CCCCCn1c(=O)c(C(=O)Nc2c(C)n(C)n(-c3ccccc3)c2=O)c(O)c2ccccc21 |  |  |  |  |  |  |  |  |  |  |  |  |  |  |  |  | > 47.1 µM (inactive) | > 53 µM (inactive) | > 100 µM (inactive)
